Test results reported in patent US11529318B2, “Devices and methods for local delivery of tacrolimus” (UNIVERSITY OF PITTSBURGH—OF THE COMMONWEALTH SYSTEM OF …, priority 2017, dated 2022).

Experiments:
[1] = test system: retinal ganglion cells (RGCs); assay: RGC neurite growth and branching analysis; format: cell-based, rat
Protocol: Retinal ganglion cell isolation. RGCs were isolated from female and male postnatal day three (P3) Sprague-Dawley rat pups, purified by immunopanning, and cultured in NB-SATO media as previously described (Barres, Silverstein et al. 1988). The RGCs were seeded (5×10^3/cm^2) on cell culture plates coated with poly-D-lysine (70 kDa, 10 μg/mL; Sigma-Aldrich Corp., St. Louis, Mo., USA) and laminin (2 μg/mL, Sigma-Aldrich Corp.), and maintained at 37° C. in 10% CO2 for 3 days.
RGC neurite growth analysis. Neurite growth was analyzed as previously described (Steketee, Oboudiyat et al. 2014). Briefly, RGCs were fixed after 3 DIV with 4% paraformaldehyde (Alfa Aesar; 30525-89-4) in PBS, washed with PBS (2×), and permeabilized with 0.2% triton X-100 in PBS for 15 minutes. After blocking for 1 hour (1% BSA, Fisher Scientific), the RGCs were incubated in anti-β III tubulin (1:300, TUJ-1, Millipore) at 4° C. overnight, washed in PBS (3×), incubated with a FITC-rabbit anti-chicken IgY H+L (1:150, #31501, Thermo Scientific) for 3 hours, washed with PBS (3×), counterstained with the nuclear marker DAPI (1:3000, Invitrogen) for 20 minutes at room temperature, and washed in PBS (2×, 5 min. each). The RGCs were observed as above using epifluorescent microscopy and analyzed using the ImageJ plugin, NeuronJ (National Institutes of Health, Bethesda, Md., USA). Neurites were defined as any projection longer than twice the cell body, and branches were quantified as the number of secondary neurites extending from a primary neurite that originated at the cell body. At least 30 neurons were analyzed blindly as previously described for three independent experimental repeats, totaling at least 90 neurons per condition.

[2] = reference range; cited from earlier work
[3] = Tacrolimus concentration in blood, optic nerve ischemia model (Example 1); format: in vivo, Sprague-Dawley rats; conditions: Sprague-Dawley, rat, whole blood, ip, systemic administration (i.p. 2.2 mg/kg/day)
Protocol: Optic nerve ischemia and PEUU-Tac matrix application. Animals were anesthetized by intraperitoneal injection of 45:10 mg/kg ketamine/xylazine cocktail. Once anaesthetized, the optic nerve was exposed by making a small incision and then creating a nearly bloodless plane through the conjunctiva by blunt dissection with #5 forceps. The surrounding muscle and connective tissue around the optic nerve were then gently separated until the optic nerve was exposed. Using a Yasagril aneurysm clip, the right optic nerve was clamped ˜2 mm behind the globe for 10 seconds (Sarikcioglu, Demir et al. 2007). After removing the clip, ophthalmic artery integrity was confirmed by visualization. For some animals, the optic nerve sheath was fenestrated at the injury site by making an 1-2 mm incision. For animals receiving PEUU-Tac, a 1×5 mm section cut from a 10 mg PEUU-Tac matrix was sutured around the injury site and then secured by suturing to the outer sheath. After each optic nerve procedure, the conjunctiva was sutured and antibiotic ointment (Gentamicin, Bausch & Lomb, Tampa, Fla.) was applied to the eye. […]
Quantification of tacrolimus in blood by HPLC-tandem mass spectrometry. […] Monitored parent to product mass transitions for tacrolimus and ascomycin were 821.63→768.33 and 809→756 m/z, respectively.

[4] = reference range; cited from earlier work; remark: listed apart in the source

Structure (SMILES): C=CC[C@@H]1/C=C(\C)C[C@H](C)C[C@H](OC)[C@H]2O[C@@](O)(C(=O)C(=O)N3CCCC[C@H]3C(=O)O[C@H](/C(C)=C/[C@@H]3CC[C@@H](O)[C@H](OC)C3)[C@H](C)[C@@H](O)CC1=O)[C@H](C)C[C@@H]2OC [tacrolimus]
- share of the increase in total neurite growth manifested in axon growth [1]: 90%
- neurite growth compared to all other conditions, including media control ([1]; 50 μM and 100 μM tacrolimus): significantly decreased
- longest neurite (axon) growth ([1]; 3 DIV): increased
- neurite branching ([1]; 3 DIV): without a change
- concentration at which total neurite growth was optimal ([1]; 3 DIV, axons and dendrites): 5 µM
- axonal outgrowth ([1]; assays with RGCs and microglia): did not show an increase
- total and longest neurite growth ([1]; assays with RGCs only): significantly increased
- therapeutic trough levels (blood) [2]: 5 to 10 ng/mL
- concentration at 24 h ([3]; 24 hour): 7.05 ± 1.09 ng/mL
- concentration at 14 days ([3]; 14 days): 27.7 ± 3.53 ng/mL
- typical therapeutic trough levels (blood) [4]: 10 to 20 ng/g
